Assay results as given in US6914064B2, “1,4-Disubstituted piperazine derivatives useful as uro-selective α1-adrenoceptor blockers” (Ranbaxy Laboratories Limited, priority 2000, dated 2005).

Columns and labels:
α1A adrenoceptor = biological target: T1, α1A adrenoceptor (Rattus norvegicus, UniProt P43140); assay: Receptor binding assay, displacement of [3H]prazosin, rat submaxillary membranes; conditions: for Ki: [3H]prazosin displacement, rat submaxillary membranes, read-out: α1A (Rat submaxillary) Ki; for Selectivity α1B/α1A: ratio of Ki α1B (rat liver) / α1A (rat submaxillary)
T1 construct: from tissue; host or cells: rat submaxillary gland membranes
T1 sequence (P43140 1-466): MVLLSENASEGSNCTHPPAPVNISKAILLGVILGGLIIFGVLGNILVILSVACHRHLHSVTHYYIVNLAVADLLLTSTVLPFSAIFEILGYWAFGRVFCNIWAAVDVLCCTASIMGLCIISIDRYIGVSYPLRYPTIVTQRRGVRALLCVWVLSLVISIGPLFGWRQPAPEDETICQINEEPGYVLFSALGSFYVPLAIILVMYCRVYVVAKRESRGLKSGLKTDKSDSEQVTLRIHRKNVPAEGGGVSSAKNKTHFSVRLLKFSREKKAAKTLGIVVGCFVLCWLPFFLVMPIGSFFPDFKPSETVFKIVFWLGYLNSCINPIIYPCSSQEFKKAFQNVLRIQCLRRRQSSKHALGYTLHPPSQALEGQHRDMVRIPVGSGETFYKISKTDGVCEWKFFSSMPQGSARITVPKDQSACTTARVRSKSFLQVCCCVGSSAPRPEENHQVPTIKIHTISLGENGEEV
Method: Receptor binding assays were performed using native α-adrenoceptors.
(§1) Submaxillary glands were isolated immediately after sacrifice. The liver was perfused with buffer (Tris HCl 50 mM, NaCl 100 mM, 10 mM EDTA pH 7.4). The tissues were homogenised in 10 volumes of buffer (Tris HCl 50 mM, NaCl 100 mM, EDTA 10 mM, pH 7.4). The homogenate was filtered through two layers of wet gauze and filtrate was centrifuged at 500 g for 10 min. The supernatant was subsequently centrifuged at 40,000 g for 45 min. The pellet thus obtained was resuspended in the same volume of assay buffer (Tris HCl 50 mM, EDTA 5 mM, pH 7.4) and were stored at −70° C. until the time of assay.
(§2) The membrane homogenates (150-250 μg protein) were incubated in 250 μl of assay buffer (Tris HCl 50 mM, EDTA 5 mM, pH 7.4) at 24-25° C. for 1 h. Non-specific binding was determined in the presence of 300 nM prazosin. The incubation was terminated by vacuum filtration over GF/B fibre filters. The filters were then washed with ice cold 50 mM Tris HCl buffer (pH 7.4). The filtermats were dried and bound radioactivity retained on filters was counted.The IC50 & Kd were estimated by using the non-linear curve fitting program using G Pad Prism software.

α1B adrenoceptor = biological target: T2, α1B adrenoceptor (Rattus norvegicus, UniProt P15823); assay: Receptor binding assay, displacement of [3H]prazosin, rat liver membranes; conditions: [3H]prazosin displacement, rat liver membranes; read-out: α1B (Rat liver) Ki
T2 construct: from tissue; host or cells: rat liver membranes
T2 sequence (P15823 1-515): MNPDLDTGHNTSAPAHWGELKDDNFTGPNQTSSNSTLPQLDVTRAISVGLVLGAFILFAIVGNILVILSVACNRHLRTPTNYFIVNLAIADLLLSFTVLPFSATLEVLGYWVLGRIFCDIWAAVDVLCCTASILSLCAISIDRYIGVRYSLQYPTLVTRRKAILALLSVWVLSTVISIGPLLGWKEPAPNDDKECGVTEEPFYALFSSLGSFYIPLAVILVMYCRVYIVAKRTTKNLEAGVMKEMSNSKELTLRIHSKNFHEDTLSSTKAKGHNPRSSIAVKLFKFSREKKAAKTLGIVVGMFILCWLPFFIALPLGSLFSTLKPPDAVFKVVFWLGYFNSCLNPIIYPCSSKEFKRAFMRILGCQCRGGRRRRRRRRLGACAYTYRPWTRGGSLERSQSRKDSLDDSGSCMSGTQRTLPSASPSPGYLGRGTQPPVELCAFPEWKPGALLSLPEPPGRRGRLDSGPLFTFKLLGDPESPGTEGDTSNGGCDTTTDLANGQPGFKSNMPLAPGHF
Method: Receptor binding assays were performed using native α-adrenoceptors. The affinity of different compounds for α1A and α1B adrenoceptor subtypes was evaluated by studying their ability to displace specific [^3H]prazosin binding from the membranes of rat submaxillary and liver respectively (Michel et al, Br J Pharmacol, 98, 883-889 (1989)). The binding assays were performed according to U'Prichard et al. (Eur J Pharmacol, 50:87-89 (1978)) with minor modifications.
as §1
as §2, with “software. The value of inhibition constant Ki was calculated from competitive binding studies by using Cheng & Prusoff equation (Cheng & Prusoff, Biochem Pharmacol, 1973,22: 3099-3108), Ki=IC50/(1+L/Kd) where L is the concentration of [^3H]prazosin used in the particular experiment (Table I).” for “software.”

Cl.O=C1C2CC=CCC2C(=O)N1CCCN1CCN(CC=Cc2ccccc2)CC1 (centres unmarked) [Compound 15, 2-[3-{4-(Cinnamyl)piperazin-1-yl}propyl]-3a,4,7,7a-tetrahydro-1H-isoindole-1,3(2H)-dione hydrochloride]
Ki (α1A adrenoceptor): > 500 nM
Selectivity α1B/α1A (α1A adrenoceptor): 1
melting point: 263 to 265 °C
Ki (α1B adrenoceptor): > 500 nM

Cl.O=C1C2CC=CCC2C(=O)N1CCCN1CCN(c2ccc([N+](=O)[O-])cc2)CC1 (centres unmarked) [Compound 16, 2-[3-{4-(4-Nitrophenyl)piperazin-1-yl}propyl]-3a,4,7,7a-tetrahydro-1H-isoindole-1,3(2H)-dione hydrochloride]
Ki (α1A adrenoceptor): > 500 nM
Selectivity α1B/α1A (α1A adrenoceptor): 1
melting point: 259.5 to 261 °C
Ki (α1B adrenoceptor): > 500 nM

Cc1ccc(N2CCN(CCCN3C(=O)C4CC=CCC4C3=O)CC2)cc1Cl.Cl (centres unmarked) [Compound 17, 2-[3-{4-(3-Chloro-4-methylphenyl)piperazin-1-yl}propyl]-3a,4,7,7a-tetrahydro-1H-isoindole-1,3(2H)-dione hydrochloride]
Ki (α1A adrenoceptor): 48 nM
Selectivity α1B/α1A (α1A adrenoceptor): 0.78
melting point: 248 to 249 °C
Ki (α1B adrenoceptor): 37 nM

COc1cc(F)ccc1N1CCN(CCCN2C(=O)C3CC=CCC3C2=O)CC1.Cl (centres unmarked) [Compound 18, 2-[3-{4-(4-Fluoro-2-methoxyphenyl)piperazin-1-yl}propyl]-3a,4,7,7a-tetrahydro-1H-isoindole-1,3(2H)-dione hydrochloride]
Ki (α1A adrenoceptor): 10 nM
Selectivity α1B/α1A (α1A adrenoceptor): 27
melting point: 232 to 233 °C
Ki (α1B adrenoceptor): 271 nM

Cl.O=C1C2CC=CCC2C(=O)N1CCCN1CCN(c2ccc(Cl)cc2Cl)CC1 (centres unmarked) [Compound 20, 2-[3-{4-(2,4-Dichlorophenyl)piperazin-1-yl}propyl]-3a,4,7,7a-tetrahydro-1H-isoindole-1,3(2H)-dione hydrochloride]
Ki (α1A adrenoceptor): 46.8 nM
Selectivity α1B/α1A (α1A adrenoceptor): 11
melting point: 210 to 211 °C
Ki (α1B adrenoceptor): > 500 nM

COc1ccc(N2CCN(CCCN3C(=O)C4CC=CCC4C3=O)CC2)c(OC)c1.Cl (centres unmarked) [Compound 21, 2-[3-{4-(2,4-Dimethoxyphenyl)piperazin-1-yl}propyl]-3a,4,7,7a-tetrahydro-1H-isoindole-1,3(2H)-dione hydrochloride]
Ki (α1A adrenoceptor): > 500 nM
Selectivity α1B/α1A (α1A adrenoceptor): 1
melting point: 226 to 227 °C
Ki (α1B adrenoceptor): > 500 nM

Cc1cccc(C)c1N1CCN(CCCN2C(=O)C3CC=CCC3C2=O)CC1.Cl (centres unmarked) [Compound 22, 2-[3-{4-(2,6-Dimethylphenyl)piperazin-1-yl}propyl]-3a,4,7,7a-tetrahydro-1H-isoindole-1,3(2H)-dione hydrochloride]
Ki (α1A adrenoceptor): 208 nM
Selectivity α1B/α1A (α1A adrenoceptor): 2.4
melting point: 223 to 224 °C
Ki (α1B adrenoceptor): > 500 nM

COc1ccc(OC)c(N2CCN(CCCN3C(=O)C4CC=CCC4C3=O)CC2)c1.Cl (centres unmarked) [Compound 26, 2-[3-{4-(2,5-Dimethoxyphenyl)piperazin-1-yl}propyl]-3a,4,7,7a-tetrahydro-1H-isoindole-1,3(2H)-dione hydrochloride]
Ki (α1A adrenoceptor): 38 nM
Selectivity α1B/α1A (α1A adrenoceptor): 13
melting point: 193 to 195 °C
Ki (α1B adrenoceptor): > 500 nM

CC(C)(C)c1ccc(N2CCN(CCCN3C(=O)C4CC=CCC4C3=O)CC2)cc1.Cl (centres unmarked) [Compound 27, 2-[3-{4-(4-tert-Butylphenyl)piperazin-1-yl}propyl]-3a,4,7,7a-tetrahydro-1H-isoindole-1,3(2H)-dione hydrochloride]
Ki (α1A adrenoceptor): > 500 nM
Selectivity α1B/α1A (α1A adrenoceptor): 1
melting point: 264 to 265 °C
Ki (α1B adrenoceptor): > 500 nM

COc1cccc(O)c1N1CCN(CCCN2C(=O)C3CC=CCC3C2=O)CC1.Cl (centres unmarked) [Compound 28, 2-[3-{4-(2-Methoxy-6-hydroxyphenyl)piperazin-1-yl}propyl]-3a,4,7,7a-tetrahydro-1H-isoindole-1,3(2H)-dione hydrochloride]
Ki (α1A adrenoceptor): > 500 nM
Selectivity α1B/α1A (α1A adrenoceptor): 1
melting point: 267 to 268 °C
Ki (α1B adrenoceptor): > 500 nM

COc1ccccc1N1CCN(CC(C)CN2C(=O)C3CC=CCC3C2=O)CC1.Cl (centres unmarked) [Compound 30, 2-[3-{4-(2-Methoxyphenyl)piperazin-1-yl}-2-methylpropyl]-3a,4,7,7a-tetrahydro-1H-isoindole-1,3(2H)-dione hydrochloride]
Ki (α1A adrenoceptor): 48 nM
Selectivity α1B/α1A (α1A adrenoceptor): 13
melting point: 184 to 185 °C
Ki (α1B adrenoceptor): 611 nM
